One test concerns the target T1, STAT3 (Homo sapiens, UniProt P40763).
T1 construct: Recombinant STAT3 protein (STAT3(G127-I722))
Briefly: STAT3 Fluorescence Polarization (FP) Assay. It is filed as binding. On the procedure: An FP assay was developed to determine IC50 values for test substances.
Recombinant STAT3 protein (STAT3(G127-I722)) at 25 nM was combined with a fluorescently labeled, phosphotyrosine peptide probe (5-FAM-GpYLPQTV-NH2) at 2 nM in FP buffer (10 mM HEPES pH 7.4, 50 mM NaCl, 1 mM EDTA, 0.05% Tween 20, 2 mM DTT). 50 μL of STAT3-probe mixture was added to serial diluted compounds in black, 96-well plates (Greiner BioOne 655076) to a final concentration of 1% DMSO. Reaction components were mixed, and FP was measured after 45-minute incubation at room temperature using a Tecan Spark multimode plate reader. FP signal (mP) was plotted against the log concentration of the test substances and IC50 values were calculated by nonlinear regression analysis using GraphPad Prism software. For STAT3 FP assay, A=≤100 nM; B=>100-1000 nM; C=>1-10 μM; and D=>10 μM.

In another test the target is T2, STAT6 (Homo sapiens, UniProt P42226).
T2 construct: Recombinant STAT6 protein (STAT6(W123-T658))
T2 sequence (P42226 123-658): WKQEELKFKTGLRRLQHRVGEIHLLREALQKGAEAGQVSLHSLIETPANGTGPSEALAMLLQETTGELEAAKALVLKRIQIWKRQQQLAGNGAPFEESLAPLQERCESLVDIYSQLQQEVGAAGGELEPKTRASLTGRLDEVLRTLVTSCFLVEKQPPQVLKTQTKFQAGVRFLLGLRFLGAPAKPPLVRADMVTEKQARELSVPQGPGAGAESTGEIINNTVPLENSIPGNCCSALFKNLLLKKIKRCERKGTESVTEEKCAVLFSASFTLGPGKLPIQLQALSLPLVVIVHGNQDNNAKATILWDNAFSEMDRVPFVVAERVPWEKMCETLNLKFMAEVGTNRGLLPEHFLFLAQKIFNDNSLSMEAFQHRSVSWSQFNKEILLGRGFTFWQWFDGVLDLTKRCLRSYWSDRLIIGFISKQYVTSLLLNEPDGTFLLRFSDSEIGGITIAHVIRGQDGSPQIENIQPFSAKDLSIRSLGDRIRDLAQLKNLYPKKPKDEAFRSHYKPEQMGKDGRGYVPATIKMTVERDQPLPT
Briefly: STAT6 Fluorescence Polarization (FP) Assay. In kind it is binding. On the procedure:
An FP assay was developed to determine IC50 values for test substances. Recombinant STAT6 protein (STAT6(W123-T658)) at 250 nM was combined with a fluorescently labeled, phosphotyrosine peptide probe (5-FAM-ApYKPFQDLI-NH2) at 2 nM in FP buffer (10 mM HEPES pH 7.4, 50 mM NaCl, 1 mM EDTA, 0.05% Tween 20, 2 mM DTT). 50 μL of STAT6-probe mixture was added to serial diluted compounds in black, 96-well plates (Greiner BioOne 655076) to a final concentration of 1% DMSO. Reaction components were mixed, and FP was measured after 45-minute incubation at room temperature using a Tecan Spark multimode plate reader. FP signal (mP) was plotted against the log concentration of the test substances and IC50 values were calculated by nonlinear regression analysis using GraphPad Prism software. For STAT6 FP assay, A=≤300 nM; B=>300-3000 nM; C=>3-30 μM; and D=>30 μM.

For another test, the target named is pSTAT3 (Homo sapiens, UniProt P40763). Kind of test: MSD-pSTAT-PBMC Assay (pSTAT3, IL-6 stimulated). In kind it is cell-based. The text has this: Cryopreserved Peripheral Blood Mononuclear Cells (PBMC) are from AllCells. Recombinant Human IL-4 and IL-6 are from Peprotech. Mouse monoclonal anti-STAT3 antibody, rabbit monoclonal anti-pY705-STAT3 antibody, rabbit monoclonal Anti-pY641-STAT6 antibody, and lysis buffer are from Cell Signaling Technology (CST). Mouse monoclonal anti-STAT6 antibody is from BioLegend. Assay plates, blocker, and anti-rabbit secondary antibody are from Meso Scale Discovery (MSD).
Cryopreserved PBMCs were thawed out and allowed to recover overnight in IMDM+10% heat-inactivated FBS prior to plating 50,000 (STAT3) or 25,000 (STAT6) cells per well in 96-well U-bottom tissue culture plates. Cells were treated with compound for 3 hrs, then stimulated with 10 ng/mL IL-6 (STAT3) or 1 ng/mL IL-4 (STAT6) for 10 min. Cells were then spun down and washed with ice-cold PBS prior to lysing the cell pellet with 1× lysis buffer (CST) with 1× HALT protease and phosphatase inhibitor cocktail (Thermo). Lysates were transferred to and incubated overnight at 4° C. with shaking in QuickPlex 96-well high bind assay plates (MSD) pre-coated overnight with 30 μL per well of […] mouse monoclonal anti-STAT3 antibody (STAT3) or 2 μg/mL mouse monoclonal anti-STAT6 antibody (STAT6) in 1× PBS, and pre-blocked for 1 hour with 3% Blocker-A (MSD). Captured protein in the assay plates were then washed and probed with 25 μL per well of […] rabbit monoclonal anti-pY705-STAT3 antibody (STAT3) or […] rabbit monoclonal Anti-pY641-STAT6 antibody (STAT6) in 1% Blocker-A for 1 hour at room temperature with shaking, then washed and probed with 25 ul per well of 1 ug/ml Sulfo-TAG Labeled Goat Anti-Rabbit Antibody (MSD) in 1% Blocker-A for 1 hour at room temperature with shaking. Assay plates were then washed and 150 μL of 1× Read Buffer-T (MSD) was added to each well prior to reading on an SQ120 MSD Plate Reader. Assay signal from each sample was subtracted by the signal from unstimulated control wells and normalized to DMSO control wells. IC50 values were calculated using Graph Pad Prism Dose-Response Nonlinear Regression with variable slope. For both pSTAT3 and pSTAT6 A=≤100 nM; B=>100-1000 nM; C=>1000-3000 nM; and D=>3 μM.

The mark [1] stands for this setting: read-out: pSTAT3 IC50, compound 3 hrs, then 10 ng/mL IL-6 10 min, pY705-STAT3.
[2] abbreviates: compound 3 hrs, then 10 ng/mL IL-6 10 min, pY705-STAT3, read-out: pSTAT3 IC50.

Like-named read-outs stand apart in the source and are kept apart here.

pSTAT3, sequence (P40763 whole entry): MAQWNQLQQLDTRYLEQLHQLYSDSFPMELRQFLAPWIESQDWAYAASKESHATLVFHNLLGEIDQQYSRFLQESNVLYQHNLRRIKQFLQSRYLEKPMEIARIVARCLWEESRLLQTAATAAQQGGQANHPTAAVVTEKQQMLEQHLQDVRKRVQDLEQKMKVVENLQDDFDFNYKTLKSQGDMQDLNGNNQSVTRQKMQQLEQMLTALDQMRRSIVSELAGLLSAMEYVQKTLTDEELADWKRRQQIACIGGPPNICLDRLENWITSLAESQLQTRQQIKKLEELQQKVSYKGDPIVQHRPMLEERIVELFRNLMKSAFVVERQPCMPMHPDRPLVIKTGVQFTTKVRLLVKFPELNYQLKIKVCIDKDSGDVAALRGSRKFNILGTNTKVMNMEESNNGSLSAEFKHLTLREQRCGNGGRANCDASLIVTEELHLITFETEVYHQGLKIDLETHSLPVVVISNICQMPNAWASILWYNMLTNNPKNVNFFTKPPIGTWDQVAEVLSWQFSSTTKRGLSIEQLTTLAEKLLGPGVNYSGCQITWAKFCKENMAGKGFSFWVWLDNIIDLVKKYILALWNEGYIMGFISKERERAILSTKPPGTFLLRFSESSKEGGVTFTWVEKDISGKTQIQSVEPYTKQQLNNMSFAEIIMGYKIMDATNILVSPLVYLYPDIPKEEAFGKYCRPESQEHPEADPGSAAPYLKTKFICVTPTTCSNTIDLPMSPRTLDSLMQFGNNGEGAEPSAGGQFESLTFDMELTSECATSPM
T1 sequence (P40763 127-722): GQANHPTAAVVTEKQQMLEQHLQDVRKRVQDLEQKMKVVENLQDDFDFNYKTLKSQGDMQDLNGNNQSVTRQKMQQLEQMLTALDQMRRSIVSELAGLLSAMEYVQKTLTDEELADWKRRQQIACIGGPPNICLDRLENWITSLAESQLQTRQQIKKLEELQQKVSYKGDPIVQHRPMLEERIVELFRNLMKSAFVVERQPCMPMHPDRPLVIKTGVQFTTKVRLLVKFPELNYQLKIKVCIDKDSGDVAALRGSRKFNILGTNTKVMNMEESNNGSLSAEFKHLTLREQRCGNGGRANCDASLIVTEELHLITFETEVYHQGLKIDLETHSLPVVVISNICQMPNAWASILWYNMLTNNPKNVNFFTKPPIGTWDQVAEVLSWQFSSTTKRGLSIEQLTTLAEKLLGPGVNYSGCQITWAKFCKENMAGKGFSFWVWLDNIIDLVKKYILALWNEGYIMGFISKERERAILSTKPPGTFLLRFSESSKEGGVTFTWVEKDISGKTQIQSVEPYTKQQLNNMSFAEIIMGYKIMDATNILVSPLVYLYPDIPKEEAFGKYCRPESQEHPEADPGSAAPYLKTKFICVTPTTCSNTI

Regarding `O=C(COc1cccc2c1C(=O)N(C1CCC(=O)NC1=O)C2=O)NCCOCCOCC(=O)NC1(c2ccccn2)CN(C(=O)[C@@H]2CC[C@H]3CCCC[C@H](NC(=O)c4cc5cc(C(F)(F)P(=O)(O)O)ccc5s4)C(=O)N32)C1` (stereo partly drawn) [Compound 32, ((2-(((3S,6S,10aR)-3-(3-(2-(2-(2-(2-((2-(2,6-dioxopiperidin-3-yl)-1,3-dioxoisoindolin-4-yl)oxy)acetamido)ethoxy)ethoxy)acetamido)-3-(pyridin-2-yl)azetidine-1-carbonyl)-5-oxodecahydropyrrolo[1,2-a]azocin-6-yl)carbamoyl)benzo[b]thiophen-5-yl)difluoromethyl)phosphonic acid], the IC50 at STAT3 was < 0.1 µM; at STAT6, 3 to 30 µM; on pSTAT3 (setting [1]) it was > 3 µM.

As for `Cc1ncsc1-c1ccc([C@H](C)NC(=O)[C@@H]2C[C@@H](O)CN2C(=O)[C@@H](NC(=O)COCCOCCC(=O)NC2(c3ccccn3)CN(C(=O)[C@@H]3CC[C@H]4CCCC[C@H](NC(=O)c5cc6cc(C(F)(F)P(=O)(O)O)ccc6s5)C(=O)N43)C2)C(C)(C)C)cc1` [Compound 33, (difluoro(2-(((3S,6S,10aR)-3-(3-(3-(2-(2-(((S)-1-((2S,4R)-4-hydroxy-2-(((S)-1-(4-(4-methylthiazol-5-yl)phenyl)ethyl)carbamoyl)pyrrolidin-1-yl)-3,3-dimethyl-1-oxobutan-2-yl)amino)-2-oxoethoxy)ethoxy)propanamido)-3-(pyridin-2-yl)azetidine-1-carbonyl)-5-oxodecahydropyrrolo[1,2-a]azocin-6-yl)carbamoyl)benzo[b]thiophen-5-yl)methyl)phosphonic acid], the IC50 was < 0.1 µM against STAT3, 3 to 30 µM against STAT6 and > 3 µM on pSTAT3 (setting [1]).

On to `Cn1c(=O)n(C2CCC(=O)NC2=O)c2ccc(C#CCCC3CCN(c4ccncc4C4CN(C(=O)[C@@H]5CC[C@@H]6CCC[C@H](NC(=O)c7cc8cc(C(F)(F)P(=O)(O)O)ccc8s7)C(=O)N65)C4)CC3)cc21` (stereo partly drawn) [Compound 34, ((2-(((3S,6S,9aS)-3-(3-(4-(4-(4-(1-(2,6-dioxopiperidin-3-yl)-3-methyl-2-oxo-2,3-dihydro-1H-benzo[d]imidazol-5-yl)but-3-yn-1-yl)piperidin-1-yl)pyridin-3-yl)azetidine-1-carbonyl)-5-oxooctahydro-1H-pyrrolo[1,2-a]azepin-6-yl)carbamoyl)benzo[b]thiophen-5-yl)difluoromethyl)phosphonic acid], for which the IC50 is < 0.1 µM at STAT3, 0.3 to 3 µM at STAT6 and 0.1 to 1 µM on pSTAT3 (setting [2]).

`Cn1c(=O)n(C2CCC(=O)NC2=O)c2ccc(C#CCCC3CCN(c4ccncc4C4CN(C(=O)[C@@H]5CC[C@@H]6CCC[C@H](NC(=O)c7cc8cc(C(F)P(=O)(O)O)ccc8s7)C(=O)N65)C4)CC3)cc21` (stereo partly drawn) [Compound 36, ((2-(((3S,6S,9aS)-3-(3-(4-(4-(4-(1-(2,6-dioxopiperidin-3-yl)-3-methyl-2-oxo-2,3-dihydro-1H-benzo[d]imidazol-5-yl)but-3-yn-1-yl)piperidin-1-yl)pyridin-3-yl)azetidine-1-carbonyl)-5-oxooctahydro-1H-pyrrolo[1,2-a]azepin-6-yl)carbamoyl)benzo[b]thiophen-5-yl)fluoromethyl)phosphonic acid]: the IC50 on STAT3 was < 0.1 µM; against STAT6, > 30 µM; at pSTAT3 (setting [2]) it was 0.1 to 1 µM.

Turning to `Cn1c(=O)n(C2CCC(=O)NC2=O)c2ccc(C#CCCC3CCN(c4ccncc4C4CN(C(=O)[C@@H]5CC[C@@H]6CCC[C@H](NC(=O)c7cc8cc([C@H](F)P(=O)(O)O)ccc8s7)C(=O)N65)C4)CC3)cc21` (stereo partly drawn) [Compound 37, ((1R)-(2-(((3S,6S,9aS)-3-(3-(4-(4-(4-(1-(2,6-dioxopiperidin-3-yl)-3-methyl-2-oxo-2,3-dihydro-1H-benzo[d]imidazol-5-yl)but-3-yn-1-yl)piperidin-1-yl)pyridin-3-yl)azetidine-1-carbonyl)-5-oxooctahydro-1H-pyrrolo[1,2-a]azepin-6-yl)carbamoyl)benzo[b]thiophen-5-yl)fluoromethyl)phosphonic acid], the IC50 against STAT3 is < 0.1 µM; on STAT6, 3 to 30 µM; on pSTAT3 (setting [2]), 0.1 to 1 µM.

With `Cn1c(=O)n(C2CCC(=O)NC2=O)c2ccc(C#CCCC3CCN(c4ccncc4C4CN(C(=O)[C@@H]5CC[C@@H]6CCC[C@H](NC(=O)c7cc8cc([C@@H](F)P(=O)(O)O)ccc8s7)C(=O)N65)C4)CC3)cc21` (stereo partly drawn) [Compound 40, ((1S)-(2-(((3S,6S,9aS)-3-(3-(4-(4-(4-(1-(2,6-dioxopiperidin-3-yl)-3-methyl-2-oxo-2,3-dihydro-1H-benzo[d]imidazol-5-yl)but-3-yn-1-yl)piperidin-1-yl)pyridin-3-yl)azetidine-1-carbonyl)-5-oxooctahydro-1H-pyrrolo[1,2-a]azepin-6-yl)carbamoyl)benzo[b]thiophen-5-yl)fluoromethyl)phosphonic acid], the results for the IC50 on STAT3, against STAT6 and at pSTAT3 (setting [1]) were < 0.1 µM, > 30 µM and < 0.1 µM, respectively.

For the origin of these results see US20260306642A1, “STAT DEGRADERS AND USES THEREOF” (Recludix Pharma, Inc., priority 2023, published 2026).
